Earlier results as cited in US20060193845A1, “Combination therapy for controlled carbohydrate digestion” (ELIXIR PHARMACEUTICALS, INC., priority 2004, published 2006).

In the case of `OCCN1C[C@H](O)[C@@H](O)[C@H](O)[C@H]1CO` [Miglitol, 3,4,5-piperidinetriol, 1-(2-hydroxyethyl)-2-(hydroxymethyl)-, [2R-(2α,3β,4α,5β)]], the solubility in water is listed as “soluble”.
